The values below are quoted from earlier work in US8552051B2 (H. L. Hall & Sons Limited, priority 2009, dated 2013).

SMILES strings stand for the structures.

One series relates to PDE4. As to conditions: Napoletano, M. et al. 2001.
In another series the target is 5-HT uptake (Homo sapiens, UniProt P31645). As to conditions: U.S. Pat. No. 6,288,104.
5-HT uptake, sequence (P31645 whole entry): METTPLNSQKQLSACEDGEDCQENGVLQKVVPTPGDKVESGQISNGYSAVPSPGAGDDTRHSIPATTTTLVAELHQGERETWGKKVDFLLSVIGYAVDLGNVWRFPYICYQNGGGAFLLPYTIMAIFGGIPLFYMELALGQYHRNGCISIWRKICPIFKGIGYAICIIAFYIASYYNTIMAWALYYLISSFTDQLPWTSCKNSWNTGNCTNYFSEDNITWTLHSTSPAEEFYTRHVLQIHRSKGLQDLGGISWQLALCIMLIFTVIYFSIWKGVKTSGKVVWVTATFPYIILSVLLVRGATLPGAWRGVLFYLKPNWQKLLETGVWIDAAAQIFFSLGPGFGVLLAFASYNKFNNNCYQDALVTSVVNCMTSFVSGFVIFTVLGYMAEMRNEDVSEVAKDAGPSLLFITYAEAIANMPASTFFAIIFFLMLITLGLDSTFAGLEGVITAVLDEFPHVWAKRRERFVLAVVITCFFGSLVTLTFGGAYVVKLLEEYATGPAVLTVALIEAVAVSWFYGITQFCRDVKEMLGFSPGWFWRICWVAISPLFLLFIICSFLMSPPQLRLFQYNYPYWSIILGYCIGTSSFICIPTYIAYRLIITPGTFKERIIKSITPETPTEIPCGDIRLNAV

`COc1ccc(C23CCC(=O)CC2N(C)CC3)cc1OC.Cl` (centres unmarked) [Mesembrine hydrochloride]: the “PDE4 inhibition, result in words” value with PDE4 is listed as “weak PDE4 inhibitor”.

As to `COc1ccc(C23C=CC(O)CC2N(C)CC3)cc1OC` (centres unmarked) [mesembrenol], the “5-HT uptake inhibitory activity, result in words” value at 5-HT uptake is “potent 5-HT uptake inhibitory activity”.
